“And” between values parts separate entries of the source, which are not always exact repeats. Identical values can stand only once.
Experiments:
[1] = system: epithelial cell (EC) apoptosis; experiment: Epithelial cell apoptosis/necrosis by Annexin V / propidium iodide flow cytometry in SBS and Sham mice given ACE-I; format: in vivo, mouse; conditions: 0.6 mg/kg/day i.p., 1 week
Experimental: (§1) Animals: Male, 2 month old, C57BL/6J mice (Jackson Laboratories, Bar Harbor, Me.) were maintained in a 12-hour day-night rhythm at 23° C. and a relative humidity of 40%-60%. 24 hours before surgery chow was exchanged to micro-stabilized rodent liquid diet (TestDiet, Richmond, Ind.). Anesthesia was achieved using sodium pentobarbital (50 mg/kg body weight, intraperitoneally, i.p.). For some experiments B6.129P2-Ace^tm2Unc (ACE^−/−; lacking somatic ACE, generous gift from the Dr. O. Smithies, Duke University), or B6;129S6-Tnf^tm1Gkl (TNF-α-knockout mice, Jackson Labs) were used. Studies conformed, and were approved by the University Committee on Use and Care of Animals at the University of Michigan.
(§2) Short Bowel Syndrome Model: A 70% mid-small bowel resection was performed (i.e. bowel between 3.5 cm distal to the ligament of Treitz and 3.5 cm proximal to the ileocecal valve), followed by an end-to-end jejuno-ileal anastomosis with 7-0 monofilament, absorbable suture. Postoperatively a subcutaneous bolus of 3 ml 0.9% saline solution was given to maintain hydration status.
(§3) Sham operation: Mid-small bowel was transsected and re-anastomosed without bowel-resection.
Annexin V staining: Apoptosis was determined by flow cytometry based on the cell surface expression of phosphatidylserine using Annexin V staining (BD PharMingen, San Diego, Calif.). Propidium iodide was utilized to simultaneously monitor cell necrosis. Flow cytometry was performed by using standard techniques. Separation of EC from IEL was done by forward- and side-scatter gating characteristics. Further confirmation of EC and IEL purity was performed with specific staining of EC with antibody generated by a hybridoma G8.8 and a pan-lymphoid antibody (anti-CD45, PharMingen, San Diego, Calif.): Purity exceeded >98%.
Mucosal cell isolation: Isolation of mucosal cells was performed using standard protocols. […]
(§4) To further understand the relevance of ACE expression on EC apoptosis, ACE-inhibition was used. […] After 1 week, mice were killed, EC apoptotic rates assessed, and IEL mRNA and protein isolated.

[2] = system: epithelial cell (EC) apoptosis; experiment: Epithelial cell apoptosis by TUNEL staining in SBS and Sham mice given ACE-I; format: in vivo, mouse; conditions: for EC Apoptosis (TUNEL analysis): 0.6 mg/kg/day i.p. 7 days
Experimental: as §1, §2, §3
TUNEL staining: Paraffin-embedded tissue was assayed with TUNEL (Terminal deoxynucleotidyl transferase Biotin-dUTP Nick End Labeling) staining, according to slight modification of manufacturer's instructions (ApopTag InSitu Apoptosis Detection Kit, Serological Corporation, Norcross, Ga.): slides were incubated with only ⅓ of the recommended concentration of TdT enzyme, in order to avoid over-staining. Apoptosis rate (percent of EC showing apoptosis) was assessed with TUNEL staining and by morphological criteria (nuclear margination, chromatin and cytoplasmic condensation, shrinkage from neighboring cells, and formation of apoptotic bodies with nuclear and cytoplasmic fragmentation). Each assessment of apoptosis consists of the mean of 8 different crypt-villus-complexes.
(§5) To further understand the relevance of ACE expression on EC apoptosis, ACE-inhibition was used. ACE-I (enalaprilat, 0.6 mg/kg/day i.p.) was given to both SBS (SBS+ACE-I), and sham operated (Sham+ACE-I) mice over a 7 day period, starting on the day after surgery. This latter group was studied as an additional control to assess the effects of ACE-I in the absence of a SBS. After 1 week, mice were killed, EC apoptotic rates assessed, and IEL mRNA and protein isolated.

IEL TNF-α mRNA = IEL TNF-α mRNA by RT-PCR in SBS and Sham mice given ACE-I; format: in vivo, mouse; conditions: for IEL TNF-α mRNA: 0.6 mg/kg/day i.p. 7 days, ratio over β-actin mRNA
Experimental: as §2, §3
IEL purification: Isolation of purified IEL from EC was performed by direct magnetic separation. Magnetic beads conjugated with antibody to CD45 (pan-lymphoid marker) were used to segregate IEL from EC (BioMag SelectaPure Anti-Mouse CD 45R Antibody Particles, Polyscience Inc., Warrington, Pa.). Magnetic separation was performed twice to further deplete EC. Final IEL purity was greater than 99% by flow cytometry.
Isolation of total RNA: A guanidine isothiocyanate/chloroform extraction method was performed using Trizol (Gibco BRL, Gaithersburg, Md.) according to manufacturer's directions.
Reverse transcriptase polymerase chain reaction (RT-PCR): mRNA (poly-A positive) was reversed transcribed into cDNA following a standard protocol. Specific primers for selected gene sequences were designed. PCR and gel were run under standard conditions. To ensure that DNA product was generated at the exponential portion of the product curve, the following cycle numbers were used: 28 cycles for ACE; 32 cycles for Rap2 interacting protein and TNF-α; and 34 cycles for lipocalin 2, amphiregulin, leucine-rich-α2-glycoprotein, and angiotensin II receptors. Gel bands were analyzed by DNA sequencing to ensure the correct product. Kodak EDAS System (Rochester, N.Y.) was used for imaging and quantification. Results were expressed as the ratio of the investigated mRNA over the β-actin mRNA expression.
as §4

IEL ACE protein = IEL ACE protein by immunoblot in SBS and Sham mice given ACE-I; format: in vivo, mouse; conditions: 0.6 mg/kg/day i.p. 7 days, ratio of ACE over β-actin protein
Experimental: as §2, §3
IEL purification: Isolation of purified IEL from EC was performed by direct magnetic separation. Magnetic beads conjugated with antibody to CD45 (pan-lymphoid marker) were used to segregate IEL from EC (BioMag SelectaPure Anti-Mouse CD 45R Antibody Particles, Polyscience Inc., Warrington, Pa.). […]
Immunoblot analysis: Protein was extracted from isolated IEL and immunoblots performed by using a Bio-Rad protein assay kit (Bio-Rad Laboratories, Hercules, Calif.), with standard methods. […] Expression for β-actin was determined in the same fashion by re-probing membranes with purified anti-mouse β-actin (1:12000, Sigma-Aldrich, St. Louis, Mo.). Results are expressed as the ratio of ACE over β-actin protein expression.
as §4

SBS mice = experiment: Histology (villus height, crypt depth) of mid-small bowel in SBS and Sham mice given ACE-I; format: in vivo, mouse; conditions: for Crypt depth / Villus height: 0.6 mg/kg/day i.p., 1 week postoperatively, 0.6 mg/kg/day
Experimental: as §1, §2, §3
Histology: A 0.5 cm segment of mid-small bowel was fixed in 10% formaldehyde, and processed for hematoxylin and eosin staining. Villus height and crypt depth were measured using a calibrated micrometer. Each measurement consisted of a mean of 16 different low power fields.
as §5

DSS-induced colitis = DSS-induced colitis mouse model; format: in vivo
Experimental: Male C57BL/6 specific-pathogen-free 2-month-old mice were kept in a 12-hour day/night environment maintained at 23° C. and a relative humidity of 40-60%. All mice drank 2.5% (w/v) DSS in water for 7 days followed by one day of plain water, while being fed normal mouse chow. Mice either received daily enalaprilat injection (0.015 mg/day, injection volume 0.5 ml, intraperitoneal) (n=6, “ACE-I”) or daily normal saline injection 0.5 ml (n=6, “Saline”). Body weight and hemoccult stool reaction were recorded. After the eight days of treatment, mice were euthanized with CO2, and colonic samples were immediately taken for histology and mucosal RNA extraction. Distal 1-cm colonic segments were excised, opened longitudinally, and fixed in 10% neutral buffered formalin. The remainder of the colon, including the cecum, was washed, cut into pieces, and mixed gently at 37° C. in EDTA/dithiothreitol buffer. The resulting mixture of epithelial cells and intraepithelial lymphocytes was then filtered through nylon wool and pelleted by centrifugation. Total RNA of the cell pellet was obtained using TRIZOL reagent and chloroform-isopropanol-ethanol extraction. Reverse transcription of RNA was done in the presence of RNAse inhibitor. RT product was then amplified with forward and reverse primers specific for ACE, TNF-α, and beta-actin, using real-time semiquantitative PCR. PCR results were analyzed by expressing ACE and TNF-α levels as a ratio to beta-actin levels, and were compared using a 2-tailed students' T test. Histologic grading of colitis was done by blinded observers using a standard scale for colitis severity. Histologic scores, as well as body weights and hemoccult results, were compared between groups using a 2-tailed homoscedastic T test.

IEL ACE mRNA = IEL ACE mRNA by real time PCR in SBS and Sham mice given ACE-I; format: in vivo, mouse; conditions: enalaprilat 0.6 mg/kg/day i.p. 7 days, ratio ACE-cDNA copies over β-actin-cDNA copies
Experimental: as §2, §3
IEL purification: Isolation of purified IEL from EC was performed by direct magnetic separation. Magnetic beads conjugated with antibody to CD45 (pan-lymphoid marker) were used to segregate IEL from EC (BioMag SelectaPure Anti-Mouse CD 45R Antibody Particles, Polyscience Inc., Warrington, Pa.). Magnetic separation was performed twice to further deplete EC. […]
Real time PCR: Real-time PCR was run to better quantify actual changes in ACE expression. cDNA was also used for real time PCR. The same primers for ACE and β-actin were used as for conventional PCR, SYBR Green I was utilized for fluorescence. […] Ct- values of ACE and β-actin were converted to numbers of cDNA copies, and results expressed as the ratio of ACE over β-actin expression.
as §4

[3] = ACE-I administration to SBS mice

Compound: C[C@H](N[C@@H](CCc1ccccc1)C(=O)O)C(=O)N1CCC[C@H]1C(=O)O [ACE-I, enalaprilat]
- EC necrosis (propidium iodide) ([1]; SBS + ACE-I mice): 5.2±2.6%
- EC necrosis (propidium iodide) ([1]; Sham + ACE-I mice): 5.2±2.6%
- EC apoptosis (Annexin V staining) ([1]; Sham + ACE-I mice, flow cytometry): 16.9±8.8%
- Decline of apoptotic rate (TUNEL) compared to untreated SBS mice ([2]; SBS + ACE-I group): 58%
- EC Apoptosis (TUNEL analysis) ([2]; SBS + ACE-I mice): 1.8 ± 0.5%
- Decrease of EC apoptosis (TUNEL) compared to untreated Sham mice ([2]; Sham + ACE-I group): 48%
- EC Apoptosis (TUNEL analysis) ([2]; Sham + ACE-I mice): 1.9 ± 0.4 %
- Location of apoptotic cells (TUNEL) ([2]; after ACE-I administration, untreated SBS and Sham: crypts and lower villi): confined to the crypts
- IEL TNF-α mRNA (IEL TNF-α mRNA; SBS + ACE-I mice): 0.5 ± 0.07
- IEL TNF-α mRNA (IEL TNF-α mRNA; Sham + ACE-I mice): 0.37 ± 0.07
- Expression of TNF-α (FIG. 4) (IEL TNF-α mRNA; mice with massive small bowel resection administered ACE-I): decreased expression of TNF-α
- IEL ACE protein (IEL ACE protein; SBS + ACE-I mice): 0.14 ± 0.03
- IEL ACE protein (IEL ACE protein; Sham + ACE-I mice): 0.13 ± 0.01
- Change in crypt depth compared to SBS mice (SBS mice; [3]): significant (P=0.02), additional increase in crypt depth
- Change in villus height compared to SBS mice (SBS mice; [3]): unchanged
- Crypt depth (SBS mice; SBS + ACE-I mice): 145±22 μm and 145 ± 22° μm
- Villus height (SBS mice; SBS + ACE-I mice): 552±56 μm
- Alterations in histological features (SBS mice; Sham + ACE-I mice): no significant alterations
- Crypt depth (SBS mice; Sham + ACE-I mice): 87±6 μm
- Villus height (SBS mice; Sham + ACE-I mice): 340±20 μm
- ACE levels (mRNA) (DSS-induced colitis; DSS + ACE-I, colonic mucosal ACE as a ratio to beta-actin levels): 0.08 ± 0.13
- Hemocult onset (DSS-induced colitis; DSS + ACE-I, enalaprilat 0.015 mg/day i.p. daily): 4.8 ± 0.8 days
- Body Weight Loss (DSS-induced colitis; DSS + ACE-I, enalaprilat 0.015 mg/day i.p. daily, 2.5% DSS 7 days): 16.6 ±+2.7%
- Histologic Grade (histologic colitis score) (DSS-induced colitis; DSS + ACE-I, enalaprilat 0.015 mg/day i.p. daily, after eight days): 11.8 ± 1.5
- Colon histology (FIG. 5) (DSS-induced colitis; DSS colitis, daily enalaprilat injection, saline controls: essentially complete loss of crypts): significant areas retaining colonic crypts as well as surface epithelial cells
- Time course of development of heme-positive stools (DSS-induced colitis; compared to mice treated only with saline injection (FIG. 6)): significantly delayed
- IEL ACE mRNA (IEL ACE mRNA; SBS + ACE-I mice): 0.63 ± 0.25
- IEL ACE mRNA (IEL ACE mRNA; Sham + ACE-I mice): 0.66 ± 0.22

— US20050203168A1, “Angiotensin converting enzyme inhibitor use for treatment and prevention of gastrointestinal disorders” (The Regents of the University of Michigan, priority 2004, published 2005)
